Patent US9169254B2, “Spiroimidazolone derivative” (Chugai Seiyaku Kabushiki Kaisha, priority 2009, dated 2015)

What follows are compounds tested against T1, human PTH1 receptor (Homo sapiens, UniProt Q03431) (assay: In vitro cAMP signal activity in HKRK-B7 cells (LLC-PK1 cells overexpressing the human PTH1 receptor)). Conditions: HKRK-B7 cells; compound at 1×10^−3 M; cAMP produced as percentage of that produced by hPTH(1-34) at 100 nM.
T1 sequence (Q03431 27-593): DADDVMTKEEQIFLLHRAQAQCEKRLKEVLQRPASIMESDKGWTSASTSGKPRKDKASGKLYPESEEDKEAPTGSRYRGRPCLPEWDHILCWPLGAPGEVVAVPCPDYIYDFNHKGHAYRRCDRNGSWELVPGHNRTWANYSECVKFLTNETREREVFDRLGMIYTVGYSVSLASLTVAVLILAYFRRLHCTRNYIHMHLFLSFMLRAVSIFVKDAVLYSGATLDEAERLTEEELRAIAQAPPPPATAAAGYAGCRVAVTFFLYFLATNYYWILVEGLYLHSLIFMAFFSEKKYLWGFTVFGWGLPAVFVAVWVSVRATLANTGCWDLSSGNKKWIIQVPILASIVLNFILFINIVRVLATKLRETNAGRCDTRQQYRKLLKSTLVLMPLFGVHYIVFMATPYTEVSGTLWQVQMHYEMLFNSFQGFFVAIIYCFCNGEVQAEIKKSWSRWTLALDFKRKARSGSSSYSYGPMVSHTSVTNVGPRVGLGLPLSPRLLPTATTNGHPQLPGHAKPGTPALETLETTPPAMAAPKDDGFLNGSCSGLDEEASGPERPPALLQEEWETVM
Assay type: cell-based

SMILES	cAMP production activity (%)
Cc1cc(N(C)C(N)=O)cc(C)c1/C=C/S(=O)(=O)N1CCC2(CC1)N=C(CCCCCCCCCCCCCC(N)=O)NC2=O [Compound 1175, 14-(8-{(E)-2-[2,6-dimethyl-4-(1-methyl-ureido)-phenyl]-ethenesulfonyl}-4-oxo-1,3,8-triaza-spiro[4.5]dec-1-en-2-yl)-tetradecanoic acid amide]	81%
Cc1cc(N(C)C(N)=O)cc(C)c1CC[S@TB3](=O)(=O)N1CCC2(CC1)N=C(C1CC(C(F)(F)F)CC(C(F)(F)F)C1)NC2=O [Compound 1138, 1-(4-{2-[2-((1R,3R,5S)-3,5-bis-trifluoromethyl-cyclohexyl)-4-oxo-1,3,8-triaza-spiro[4.5]dec-1-ene-8-sulfonyl]-ethyl}-3,5-dimethyl-phenyl)-1-methyl-urea]	77%
Cc1cc(C(=O)N2CCC(F)(F)CC2)ccc1CCS(=O)(=O)N1CCC2(CC1)N=C(c1cccc(C(F)(F)F)c1)NC2=O [Compound 365, 8-{2-[4-(4,4-difluoro-piperidine-1-carbonyl)-2-methyl-phenyl]-ethanesulfonyl}-2-(3-trifluoromethyl-phenyl)-1,3,8-triaza-spiro[4.5]dec-1-en-4-one]	81%
Cc1cc(N2C(=O)CNC2=O)cc(C)c1CCS(=O)(=O)N1CCC2(CC1)N=C(c1cccc(OC(F)(F)F)c1)NC2=O [Compound 799, 3-(3,5-dimethyl-4-{2-[4-oxo-2-(3-trifluoromethoxy-phenyl)-1,3,8-triaza-spiro[4.5]dec-1-ene-8-sulfonyl]-ethyl}-phenyl)-imidazolidine-2,4-dione]	7.1%
C=CCCCCC1=NC2(CCN([S@TB17](=O)(=O)/C=C/c3c(C)cc(N(C)C(N)=O)cc3C)CC2)C(=O)N1 [Compound 1119, 1-{4-[(E)-2-(2-hex-5-enyl-4-oxo-1,3,8-triaza-spiro[4.5]dec-1-ene-8-sulfonyl)-vinyl]-3,5-dimethyl-phenyl}-1-methyl-urea]	136%
O=C1NC(C2CCCCC2)=NC12CCN(S(=O)(=O)CCc1cccc3ccccc13)CC2 [Compound 61, 2-cyclohexyl-8-(2-naphthalen-1-yl-ethanesulfonyl)-1,3,8-triaza-spiro[4.5]dec-1-en-4-one]	43%
Cc1cc(C(=O)N2CCOC2=O)cc(C)c1CCS(=O)(=O)N1CCC2(CC1)N=C(C1CCCCC1)NC2=O [Compound 1179, 2-Cyclohexyl-8-{2-[2,6-dimethyl-4-(2-oxo-oxazolidine-3-carbonyl)-phenyl]-ethanesulfonyl}-1,3,8-triaza-spiro[4.5]dec-1-en-4-one]	65%
COC(=O)c1sccc1S(=O)(=O)N1CCC2(CC1)N=C(C1CCCCC1)NC2=O [Compound 62, 3-(2-cyclohexyl-4-oxo-1,3,8-triaza-spiro[4.5]dec-1-ene-8-sulfonyl)-thiophene-2-carboxylic acid methyl ester]	56%
CC(=O)Nc1ccc(CCS(=O)(=O)N2CCC3(CC2)N=C([C@H]2CC[C@@H](CC(F)F)CC2)NC3=O)c(C)c1 [Compound 1071, N-[4-(2-{2-[4-(2,2-difluoro-ethyl)-cyclohexyl]-4-oxo-1,3,8-triaza-spiro[4.5]dec-1-ene-8-sulfonyl}-ethyl)-3-methyl-phenyl]-acetamide]	60%
Cc1cc(C(=O)N2CCCO2)cc(C)c1/C=C/S(=O)(=O)N1CCC2(CC1)N=C(C1CCC(CCC(F)(F)F)CC1)NC2=O (centres unmarked) [Compound 992, 8-{(E)-2-[4-(isoxazolidine-2-carbonyl)-2,6-dimethyl-phenyl]-ethenesulfonyl}-2-[4-(3,3,3-trifluoro-propyl)-cyclohexyl]-1,3,8-triaza-spiro[4.5]dec-1-en-4-one]	65%
Cc1ccccc1CCS(=O)(=O)N1CCC2(CC1)N=C(C1CCCCC1)NC2=S [Compound 469, 2-Cyclohexyl-8-(2-o-tolyl-ethanesulfonyl)-1,3,8-triaza-spiro[4.5]dec-1-ene-4-thione]	47%
